# In PMC12016938, “A small molecule PKCε inhibitor reduces hyperalgesia induced by paclitaxel or opioid withdrawal” (JCI Insight, 2025):
# Values joined by “and” are separate entries in the source; they are usually repeats but may differ in a detail not shown here. Identical values can stand only once.
# Tested on: self-administration (addictive potential)
# Experiment: I.v. self-administration of CP612, between-session progressive ratio and demand curve
# Procedure: We tested the addictive potential of CP612 by examining the extent to which rats are willing to work to obtain CP612. Rats were initially trained to self-administer either saline, morphine (500 μg/kg/i.v. infusion), or 1 of 3 different doses of CP612 (75, 150, or 300 μg/kg/i.v. infusion) for 4 days at fixed ratio 1 (FR1, where 1 nose poke delivers 1 infusion).
# During the second phase, the ratio to obtain an infusion increased geometrically every other day (FR1, FR3, FR6, FR12, FR24, FR48, and FR96).
# Data (number of self-infusions) were also fitted in an economic-demand curve, which provides an estimate of the motivation to obtain drugs and their addictive potential ([20]). We measured elasticity (α), which is the relative change in consumption as a function of price (i.e., ratio of nose pokes required to obtain an infusion). Behavior is considered “inelastic” when consumption is insensitive to price and “elastic” when consumption is sensitive to price. We also measured Pmax, which is the price at which intake switches from inelastic to elastic. […] (Figure 8B).
# Rats not immediately anesthetized were eliminated from the study.
# Following this initial acquisition phase at FR1, the ratio to obtain the drug was increased geometrically every other day: FR3 (3 nose pokes are required to obtain 1 infusion of morphine), FR6, FR12, FR24, FR48, and FR96. This allows for analysis of drug consumption as a function of “price” using demand curves for behavioral economics, which can estimate the motivation to obtain drugs and their “addictive potential” ([20]). For this, data from each rat were fitted to the equation log Q = log Q0 + k (e ^–α(Q0 ^C) – 1), where Q represents consumption (number of self-infusions), and Q0 represents the level of consumption at the lowest price. C represents price for the drug (i.e., the ratio), and k is set to a constant accounting for the estimated range of consumption in logarithmic units (k = 4 in these studies). The symbol α is the relative change in consumption across changes in price (ratio). Behavior is considered “inelastic” when consumption is insensitive to price (i.e., the curve is flat, and consumption is maintained despite increases in price), and it switches to “elastic” when consumption is sensitive to price (i.e., when the curve is steep and consumption declines with increases in price). […] We also compared groups for their average intake in the consumption-price curves by measuring α (elasticity) and Pmax.
compound,measurement,setting,value
N[C@H](CNC(=O)C1(c2ccc(Cl)cc2)CCCC1)c1ccc(C(=O)Nc2ccncc2)cc1 [CP612],AVG Latency (FR12),"CP612-Mid, individual rat",0.5 and 1.1 and 1.0 and 3.5 and 4.2
same,AVG Latency (FR24),"CP612-Mid, individual rat",0.3 and 1.4 and 1.0 and 1.5
same,AVG Latency (FR48),"CP612-Mid, individual rat",0.112 and 1.3 and 0.7 and 0.539 and 2.5
same,AVG Latency (FR96),"CP612-Mid, individual rat",2.0 and 0.8 and 0.6 and 2.4
same,D1 Latency (FR1),"CP612-Mid, individual rat",3.8 and 0.15 and 0.8 and 0.215
same,D1 Latency (FR3),"CP612-Mid, individual rat",0.137 and 0.557 and 0.083 and 0.1 and 1.4
same,D1 Latency (FR6),"CP612-Mid, individual rat",0.9 and 1.2 and 1.4 and 3.2 and 4.8
same,D1 Latency (FR12),"CP612-Mid, individual rat",0.255 and 1.6 and 1.7 and 5.8
same,D1 Latency (FR24),"CP612-Mid, individual rat",0.108 and 2.3 and 0.4 and 0.282 and 2.0
same,D1 Latency (FR48),"CP612-Mid, individual rat",0.123 and 1.4 and 0.337 and 0.447 and 2.9
same,D1 Latency (FR96),"CP612-Mid, individual rat",2.4 and 0.76 and 0.8 and 2.5 and 0.4
same,D2 Latency (FR1),"CP612-Mid, individual rat",0.5 and 0.215 and 0.6 and 0.237 and 2.1
same,D2 Latency (FR3),"CP612-Mid, individual rat",1.4 and 0.375 and 2.2 and 0.065 and 0.125
same,D2 Latency (FR6),"CP612-Mid, individual rat",0.335 and 0.737 and 0.17 and 2.8 and 5.1
same,D2 Latency (FR12),"CP612-Mid, individual rat",0.7 and 0.6 and 0.4 and 5.2 and 2.6
same,D2 Latency (FR24),"CP612-Mid, individual rat",0.5 and 0.432 and 0.168 and 1.7 and 1.0
same,D2 Latency (FR48),"CP612-Mid, individual rat",0.1 and 1.2 and 1.0 and 0.632 and 2.0
same,D2 Latency (FR96),"CP612-Mid, individual rat",1.7 and 0.8 and 0.435 and 2.3
same,D3 Latency (FR1),"CP612-Mid, individual rat",0.237 and 0.127 and 0.132 and 0.128 and 0.347
same,D4 Latency (FR1),"CP612-Mid, individual rat",0.8 and 1.4 and 0.4 and 3.8
same,last Latency (FR1),"CP612-Mid, individual rat",0.158 and 0.458 and 0.11 and 0.378 and 3.0
same,last-1 Latency (FR1),"CP612-Mid, individual rat",0.8 and 1.4 and 0.4 and 3.8
same,last-2 Latency (FR1),"CP612-Mid, individual rat",0.237 and 0.127 and 0.132 and 0.128 and 0.347
same,last-3 Latency (FR1),"CP612-Mid, individual rat",0.237 and 0.215 and 0.6 and 0.128 and 0.347
same,AVG Latency (FR1_D1 to D4),"CP612-Mid, individual rats",1.8 and 5.8 and 0.9
same,AVG Latency (FR1_Last 2 FR1 days),"CP612-Mid, individual rats",0.456 and 1.8 and 0.373
same,AVG Latency (FR1_Last 4 FR1 days),"CP612-Mid, individual rats",0.455 and 2.3 and 0.265
same,AVG Latency (FR3),"CP612-Mid, individual rats",0.7 and 0.9 and 0.6
same,AVG Latency (FR6),"CP612-Mid, individual rats",1.0 and 2.4 and 0.144
same,AVG Latency (FR12),"CP612-Mid, individual rats",0.657 and 1.0 and 0.8
same,AVG Latency (FR24),"CP612-Mid, individual rats",0.8 and 0.757 and 0.6
same,AVG Latency (FR48),"CP612-Mid, individual rats",2.5 and 6.0 and 0.7
same,AVG Latency (FR96),"CP612-Mid, individual rats",1.0 and 1.3
same,D1 Latency (FR1),"CP612-Mid, individual rats",5.7 and 14.9 and 2.9
same,D1 Latency (FR3),"CP612-Mid, individual rats",1.0 and 0.8 and 0.465
same,D1 Latency (FR6),"CP612-Mid, individual rats",1.7 and 4.2 and 0.257
same,D1 Latency (FR12),"CP612-Mid, individual rats",0.9 and 1.9 and 1.1
same,D1 Latency (FR24),"CP612-Mid, individual rats",1.1 and 0.9 and 0.442
same,D1 Latency (FR48),"CP612-Mid, individual rats",1.5 and 0.8 and 1.2
same,D1 Latency (FR96),"CP612-Mid, individual rats",1.1 and 0.335 and 0.8
same,D2 Latency (FR1),"CP612-Mid, individual rats",0.7 and 3.0 and 0.022
same,D2 Latency (FR3),"CP612-Mid, individual rats",0.4 and 1.0 and 0.738
same,D2 Latency (FR6),"CP612-Mid, individual rats",0.427 and 0.638 and 0.03
same,D2 Latency (FR12),"CP612-Mid, individual rats",0.377 and 0.168 and 0.5
same,D2 Latency (FR24),"CP612-Mid, individual rats",0.5 and 0.6 and 0.753
same,D2 Latency (FR48),"CP612-Mid, individual rats",3.5 and 11.3 and 0.2
same,D2 Latency (FR96),"CP612-Mid, individual rats",0.8 and 2.3 and 1.1
same,D3 Latency (FR1),"CP612-Mid, individual rats",0.6 and 4.4 and 0.157
same,D4 Latency (FR1),"CP612-Mid, individual rats",0.3 and 1.0 and 0.57
same,last Latency (FR1),"CP612-Mid, individual rats",0.2 and 0.6 and 0.177
same,last-1 Latency (FR1),"CP612-Mid, individual rats",0.7 and 3.1 and 0.57
same,last-2 Latency (FR1),"CP612-Mid, individual rats",0.3 and 1.0 and 0.157
same,last-3 Latency (FR1),"CP612-Mid, individual rats",0.6 and 4.4 and 0.157
same,AVG Inf (FR96),"rat, in vivo",0.0
same,Addictive potential,"rat, in vivo",highly unlikely to be addictive
same,D1 Inf (FR96),"rat, in vivo",0
same,D2 Inf (FR96),"rat, in vivo",0
same,AVG Inf (FR96),"rat, in vivo, 2 h",0.0
same,D1 Inf (FR96),"rat, in vivo, 2 h",0
same,D2 Inf (FR96),"rat, in vivo, 2 h",0
same,D1 Inf (FR48),"rat, in vivo, 1 day at FR48",0
same,D1 Inf (FR96),"rat, in vivo, 1 day at FR96",0
same,D2 Inf (FR48),"rat, in vivo, 2 day at FR48",0
same,D2 Inf (FR96),"rat, in vivo, 2 day at FR96",0
